Results on three molecules are retold here after the NIST ThermoML archive (doi:10.1016/j.fluid.2014.01.041).

Numbers after ± are expanded uncertainties.

The conditions of this data set: Crystal; DTA.
For `NC(=O)CN1CCCC1=O` [2-oxo-1-pyrrolidineacetamide], the Normal melting temperature turned out to be 125 ± 0.4 °C.
Consider `CC(=O)CCCCn1c(=O)c2c(ncn2C)n(C)c1=O` [3,7-dimethyl-1-(5-oxohexyl)-3,7-dihydro-1H-purine-2,6-dione], for which the Normal melting temperature turned out to be 106 ± 0.4 °C.
Under `C(=C\c1ccccc1)/CN1CCN(C(c2ccccc2)c2ccccc2)CC1` [cinnarizine] stands 122.0 ± 0.4 °C.
